Laboratory results published in patent US20100292178A1, “Method of treating non-insulin dependent diabetes mellitus and related complications” (priority 2003, published 2010).
Where two headings read alike, the source gives them in different places. Values belong to the compound of their own block, whether it stands above or below them.

What was measured:
[1] = tested on: patients with diabetic limb-end gangrene; assay: Clinical observation of diabetic limb-end gangrene treated with Glucosynergy
[2] = set-up: species or system domestic rabbits; settings: rabbit, in vivo
Description: The effect of the berberine is the most quickly and distributed extensively, when the berberine is labeled with Hydrogen 3 and is administered to domestic rabbits by direct feeding that berberine is injected through a non-invasive tube directly through the mouth or by injection. […] The total amount in the blood plasma is 38%±3%.
(§1) All samples are calibrated by using an internal standard.

[3] = rabbit, in vivo
Description: Pharmokinetic properties of berberine are performed by conventional method involving radioactive isotope. […] All samples are calibrated by using an internal standard.
300 μg quinidine is added to the test tube as an internal standard. One ml chloroform is added into the test tube, which is shaken for ten minutes. Then, the test tube is centrifuged at 400 rev/min for five minutes with a sufficient gravity for separating residues from its liquid. An absolute amount of 0.8 ml of the chloroform is collected by a pipette and is subsequently dried by blowing air. The residue from the dried chloroform is collected and dissolved in a suitable amount of dry ethanol which contains essentially no water. The sample is ready for analysis using thin layer chromatography.
A silica gel plate is cut into nine strips, each being 1.0 cm wide. Separation is conducted under running buffer of ethyl acetate, ethyl methanoate, methanol and water mixture at a ratio of 5.4:4.6:1.2:1.0. The sample size is 5 μl. When a desirable separation is achieved, the strips are scanned for reflective intensity at wavelength λex, 350 nm and λem 550 nm using Japanese Shimatsu CS-900 double wavelengths thin layer reflective straight line scanner with a Xenon lamp. […] All scans are performed with 0.5 mm×10 mm slit, at scanning speed 20 mm/min, and at recording paper speed 10 mm/min.
After the blood serum's pH is adjusted to basic, ethyl ether is used to extract berberine. After it is dried, the residues are dissolved in a mobile phase. A fixed amount of sample is introduced into the HPLC system containing a reverse C18 column. The mobile phase is methanol, water and ethylenediamine at a ratio of 75:25:0.5. The pH is adjusted to 6.8 by using acetic acid. Concentration or amount is monitored at wavelength (λ) 345 nm.
C=Ae^−a+Be^−β−(A−B)e^−kat, where ka is average rate constant weighed by their coefficients: ka=(Aβ+Bα)/(A+B).

[4] = Pharmacokinetics of a single oral dose of berberine in human patients; assay type: in vivo; settings: 300 mg orally
[5] = Excretion of labeled berberine after injection into large mice; assay type: in vivo; settings: within six days after injection
Excerpt: Within the six days after the injection of the labeled berberine into large mice, the amounts of the labeled berberine found in the mice's urine and feces were 73% and 10.9% of the injected concentration respectively. The labeled berberine found in the urine was primarily the original form although some of it became metabolized products.
as §1

[6] = cited from earlier work
[7] = 70 cases Observation Group, 50 cases Contrast Group
[8] = Treatment Group 18 cases, Contrast Group 6 cases

SMILES: CN(C)C(=N)N=C(N)N [Glucophage]
- electrocardiogram hypertrophic cardiomyopathy: effective [1, 7]: 12 cases
- electrocardiogram hypertrophic cardiomyopathy: not effective [1, 7]: 35 cases
- electrocardiogram hypertrophic cardiomyopathy: outstandingly effective [1, 7]: 3 cases
- electrocardiogram hypertrophic cardiomyopathy: total effective rate [1, 7]: 30%
- Fibrinogen ([1]; After Treatment): 3.45 ± 0.44 q/L
- HDL ([1]; After Treatment): 1.12 ± 0.24 mmol/L
- LDL ([1]; After Treatment): 4.51 ± 0.81 mmol/L
- Red Cells Accumulation ([1]; After Treatment): 49.50 ± 4.86%
- TC ([1]; After Treatment): 5.40 ± 0.76 mmol/L
- TG ([1]; After Treatment): 3.39 ± 0.76 mmol/L
- Total Blood Viscosity High Excise ([1]; After Treatment): 6.33 ± 0.34 mpa · s
- Total Blood Viscosity Low Excise ([1]; After Treatment): 15.19 ± 2.10 mpa · s
- Viscosity Plasma ([1]; After Treatment): 2.45 ± 0.37
- Fibrinogen ([1]; Before Treatment): 3.90 ± 0.81 q/L
- HDL ([1]; Before Treatment): 1.07 ± 0.20 mmol/L
- LDL ([1]; Before Treatment): 5.27 ± 1.24 mmol/L
- Red Cells Accumulation ([1]; Before Treatment): 49.58 ± 4.34%
- TC ([1]; Before Treatment): 5.89 ± 1.17 mmol/L
- TG ([1]; Before Treatment): 3.54 ± 0.67 mmol/L
- Total Blood Viscosity High Excise ([1]; Before Treatment): 6.23 ± 0.57 mpa · s
- Total Blood Viscosity Low Excise ([1]; Before Treatment): 15.21 ± 2.17 mpa · s
- Viscosity Plasma ([1]; Before Treatment): 2.72 ± 0.66
- cases ineffective ([1]; Contrast Group 6 cases): 3 cases
- cases improved [1, 8]: 2 cases
- cases recovered [1, 8]: 1 cases
- 24 hours fixed quantity of uric sugar, Before Treatment ([1]; baseline): 15.23 ± 3.02 g/24 h
- Serum SOD Vitality, Before Treatment ([1]; baseline): 89.96 ± 18.21 nu/L
- 24 hours fixed quantity of uric sugar, After Treatment ([1]; human, in vivo): 8.37 ± 1.89 g/24 h
- Serum SOD Vitality, After Treatment ([1]; human, in vivo): 94.21 ± 17.03 nu/L
- Serum SOD Vitality, Value of Difference ([1]; human, in vivo): −4.25 ± 3.33 nu/L

- total amount in the blood plasma [2]: 38%±3%
- time to maximum concentration in the blood [3]: about 50 minutes
- apparent distribution volume (Vd) ([3]; iv): 22.1 ± 1.71 L/kg
- apparent half life for elimination (t½ β) ([3]; iv): 35.8 ± 2.0 h
- apparent half life of distribution (t½ α) ([3]; iv): 1.03 ± 0.11 h
- apparent drug distribution volume (Vd) ([3]; po): 20 ± 3 L/kg
- apparent half life for elimination (t½ β) ([3]; po): 35.3 ± 1.3 h
- apparent half life of distribution (t½ α) ([3]; po): 1.41 ± 0.16 h
- apparent rate constant ka ([3]; po): 2.45±0.22 per hour
- maximum plasma concentration Cmax [4]: 395 ng/mL
- t½ corresponding to elimination rate constant Ke [4]: 2.94 h
- Tmax ([4]; human, plasma, po, read-out: time to peak plasma concentration, tmax): 2.37 h
- half-life ([4]; human, plasma, po, read-out: t½ corresponding to apparent absorption rate constant ka (converted)): 0.87 h
- amount of labeled berberine found in feces [5]: 10.9 % of the injected concentration
- amount of labeled berberine found in urine [5]: 73 % of the injected concentration
SMILES: COc1ccc2cc3[n+](cc2c1OC)CCc1cc2c(cc1-3)OCO2 [berberine]
- tissue concentration measured by radiation intensity [2]: the highest in the lung, and then in liver, spleen, kidney and heart

SMILES: OC[C@H]1O[C@@H](O[C@@H]2OC=C[C@H]3[C@H](O)[C@@H]4O[C@]4(CO)[C@@H]23)[C@H](O)[C@@H](O)[C@@H]1O [catalpol]
- solubility in lipophilic organic solvents ([6]; chloroform, benzene, petroleum ether): almost insoluble
- solubility in water and methanol [6]: highly soluble
